Values quoted from earlier work in patent US20250231185A1, “Coronavirus T Cell Epitopes, Megapools and Uses Thereof” (La Jolla Institute for Immunology, priority 2021, published 2025).
“Also recorded” adds a separate entry of the source.

System: CD4+ T cells
Details: cited from earlier work; for Dominant: SARS-CoV-2-derived CD4 epitopes, Yes = recognized by 3 or more donors/different studies; for Restriction: T cell subset (CD4 or CD8) recognizing the SARS-CoV-2 epitope; for Allele(s): HLA class II allele(s) identified as MHC restriction elements of the CD4 epitope

In the case of 87 (YKHWPQIAQFAPSAS) [compound 87], the Dominant is listed as “Yes (more dominant epitopes are defined by being recognized by 3 or more donors/different studies)” and the Restriction is listed as “CD4”.
For 78 (KKPRQKRTATKAYNV) [compound 78], the Dominant is listed as “Yes (more dominant epitopes are defined by being recognized by 3 or more donors/different studies)” and the Restriction is listed as “CD4”.
For 54 (SWFTALTQHGKEDLK) [compound 54], the Dominant is listed as “Yes (more dominant epitopes are defined by being recognized by 3 or more donors/different studies)” and the Restriction is listed as “CD4”.
For 257 (VKHVYQLRARSVSPK) [compound 257], the “Allele(s) (HLA restriction)” value (CD4-restricted epitopes, HLA class II alleles identified as MHC restriction elements) is given as “DRB1*01:03, DRB1*07:01”.
In the case of 115 (IATNGPLKVGGSCVL) [compound 115], the “Allele(s)” value is given as “DRB1*13:02” and the Restriction is given as “CD4”.
In the case of 58 (DDQIGYYRRATRRIR) [compound 58], the “Allele(s)” value is listed as “DRB1*01:03, DRB1*07:01,; also recorded: DRB1*13:01, DRB1*14:01,; also recorded: DRB1*14:06, DRB1*15:01,; also recorded: DRB1*16:02”, the Dominant is listed as “Yes (more dominant epitopes are defined by being recognized by 3 or more donors/different studies)” and the Restriction is listed as “CD4”.
In the case of 2 (FLLVTLAILTALRLC) [compound 2], the Restriction is listed as “CD4”.
For 70 (IWVATEGALNTPKDH) [compound 70], the Restriction is listed as “CD4”.
For 28 (RPLLESELVIGAVIL) [compound 28], the “Allele(s)” value is given as “DQB1*02:02” and the Restriction is given as “CD4”.
In the case of 74 (DAALALLLLDRLNQL) [compound 74], the “Allele(s)” value is listed as “DQB1*05:01, DQB1*05:03,; also recorded: DQB1*06:02, DRB1*03:01,; also recorded: DRB1*11:01, DRB1*12:01,; also recorded: DRB1*14:01, DRB1*15:01”, the Dominant is listed as “Yes (more dominant epitopes are defined by being recognized by 3 or more donors/different studies)” and the Restriction is listed as “CD4”.
For 55 (LTQHGKEDLKFPRGQ) [compound 55], the Restriction is given as “CD4”.
In the case of 68 (NKDGIIWVATEGALN) [compound 68], the “Allele(s)” value is given as “DQB1*02:01, DQB1*02:02,; also recorded: DQB1*03:02, DQB1*05:03,; also recorded: DRB1*04:04, DRB1*07:01”, the Dominant is given as “Yes (more dominant epitopes are defined by being recognized by 3 or more donors/different studies)” and the Restriction is given as “CD4”.
For 94 (PSGTWLTYTGAIKLD) [compound 94], the “Allele(s)” value is given as “DQB1*06:03, DRB1*01:02,; also recorded: DRB1*01:03, DRB1*07:01,; also recorded: DRB1*15:01”, the Dominant is given as “Yes (more dominant epitopes are defined by being recognized by 3 or more donors/different studies)” and the Restriction is given as “CD4”.
In the case of 83 (RRGPEQTQGNFGDQE) [compound 83], the Restriction is given as “CD4”.
For 37 (IKDLPKEITVATSRT) [compound 37], the Dominant is listed as “Yes (more dominant epitopes are defined by being recognized by 3 or more donors/different studies)” and the Restriction is listed as “CD4”.
For 13 (LIFLWLLWPVTLACF) [compound 13], the “Allele(s)” value is listed as “DQB1*05:01, DQB1*05:03,; also recorded: DRB1*01:02” and the Restriction is listed as “CD4”.
In the case of 71 (EGALNTPKDHIGTRN) [compound 71], the Restriction is listed as “CD4”.
In the case of 51 (NAPRITFGGPSDSTG) [compound 51], the “Allele(s)” value is listed as “DQB1*03:01” and the Restriction is listed as “CD4”.
In the case of 66 (RWYFYYLGTGPEAGL) [compound 66], the Dominant is given as “Yes (more dominant epitopes are defined by being recognized by 3 or more donors/different studies)” and the Restriction is given as “CD4”.
In the case of 86 (TDYKHWPQIAQFAPS) [compound 86], the Restriction is listed as “CD4”.
For 21 (FIASFRLFARTRSMW) [compound 21], the “Allele(s)” value is listed as “DQB1*05:03, DRB1*03:01,; also recorded: DRB1*14:01” and the Restriction is listed as “CD4”.
In the case of 80 (KRTATKAYNVTQAFG) [compound 80], the “Allele(s)” value is listed as “DQB1*06:02, DQB1*06:03”, the Dominant is listed as “Yes (more dominant epitopes are defined by being recognized by 3 or more donors/different studies)” and the Restriction is listed as “CD4”.
For 27 (GTILTRPLLESELVI) [compound 27], the “Allele(s)” value is listed as “DRB1*13:01” and the Restriction is listed as “CD4”.
In the case of 45 (RVAGDSGFAAYSRYR) [compound 45], the Restriction is given as “CD4”.
In the case of 73 (AGNGGDAALALLLLD) [compound 73], the “Allele(s)” value is listed as “DQB1*03:01, DQB1*06:02”, the Dominant is listed as “Yes (more dominant epitopes are defined by being recognized by 3 or more donors/different studies)” and the Restriction is listed as “CD4”.
In the case of 89 (QFAPSASAFFGMSRI) [compound 89], the “Allele(s)” value is listed as “DRB1*07:01” and the Restriction is listed as “CD4”.
In the case of 85 (LIRQGTDYKHWPQIA) [compound 85], the Dominant is given as “Yes (more dominant epitopes are defined by being recognized by 3 or more donors/different studies)” and the Restriction is given as “CD4”.
For 4 (FYVYSRVKNLNSSRV) [compound 4], the Dominant is given as “Yes (more dominant epitopes are defined by being recognized by 3 or more donors/different studies)” and the Restriction is given as “CD4”.
For 14 (LLWPVTLACFVLAAV) [compound 14], the “Allele(s)” value is listed as “DQB1*05:01, DQB1*05:03,; also recorded: DQB1*06:03” and the Restriction is listed as “CD4”.
In the case of 100 (FKDQVILLNKHIDAY) [compound 100], the “Allele(s)” value is given as “DRB1*03:01, DRB1*14:01,; also recorded: DRB1*14:06, DRB1*15:01,; also recorded: DRB1*16:02”, the Dominant is given as “Yes (more dominant epitopes are defined by being recognized by 3 or more donors/different studies)” and the Restriction is given as “CD4”.
In the case of 20 (MWLSYFIASFRLFAR) [compound 20], the “Allele(s)” value is given as “DQB1*02:01, DQB1*05:01,; also recorded: DQB1*05:02, DQB1*05:03,; also recorded: DRB1*03:01, DRB1*14:01,; also recorded: DRB1*14:06, DRB1*16:01,; also recorded: DRB1*16:02”, the Dominant is given as “Yes (more dominant epitopes are defined by being recognized by 3 or more donors/different studies)” and the Restriction is given as “CD4”.
In the case of 41 (SRTLSYYKLGASQRV) [compound 41], the “Allele(s)” value is listed as “DRB5*01:01, DRB5*01:02”, the Dominant is listed as “Yes (more dominant epitopes are defined by being recognized by 3 or more donors/different studies)” and the Restriction is listed as “CD4”.
For 106 (AADLDDFSKQLQQSM) [compound 106], the Restriction is given as “CD4”.
For 53 (ASWFTALTQHGKEDL) [compound 53], the Dominant is listed as “Yes (more dominant epitopes are defined by being recognized by 3 or more donors/different studies)” and the Restriction is listed as “CD4”.
In the case of 43 (SYYKLGASQRVAGDS) [compound 43], the “Allele(s)” value is given as “DQB1*03:01, DRB1*01:01,; also recorded: DRB1*07:01”, the Dominant is given as “Yes (more dominant epitopes are defined by being recognized by 3 or more donors/different studies)” and the Restriction is given as “CD4”.
In the case of 60 (YYRRATRRIRGGDGK) [compound 60], the “Allele(s)” value is listed as “DRB1*13:01, DRB1*14:06”, the Dominant is listed as “Yes (more dominant epitopes are defined by being recognized by 3 or more donors/different studies)” and the Restriction is listed as “CD4”.
In the case of 69 (KDGIIWVATEGALNT) [compound 69], the Dominant is listed as “Yes (more dominant epitopes are defined by being recognized by 3 or more donors/different studies)” and the Restriction is listed as “CD4”.
For 72 (AIVLQLPQGTTLPKG) [compound 72], the Dominant is listed as “Yes (more dominant epitopes are defined by being recognized by 3 or more donors/different studies)” and the Restriction is listed as “CD4”.
In the case of 26 (NVPLHGTILTRPLLE) [compound 26], the Restriction is given as “CD4”.
For 61 (TRRIRGGDGKMKDLS) [compound 61], the Restriction is listed as “CD4”.
In the case of 10 (QFAYANRNRFLYIIK) [compound 10], the “Allele(s)” value is listed as “DRB1*14:01”, the Dominant is listed as “Yes (more dominant epitopes are defined by being recognized by 3 or more donors/different studies)” and the Restriction is listed as “CD4”.
In the case of 32 (LRGHLRIAGHHLGRC) [compound 32], the “Allele(s)” value is given as “DRB1*11:01, DRB1*11:04”, the Dominant is given as “Yes (more dominant epitopes are defined by being recognized by 3 or more donors/different studies)” and the Restriction is given as “CD4”.
For 49 (LNTDHSSSSDNIALL) [compound 49], the Restriction is listed as “CD4”.
For 99 (PNFKDQVILLNKHIDAYK) [compound 99], the Restriction is listed as “CD4”.
For 104 (KQQTVTLLPAADLDDF) [compound 104], the Restriction is listed as “CD4”.
In the case of 34 (LRIAGHHLGRCDIKD) [compound 34], the Restriction is listed as “CD4”.
For 57 (GVPINTNSSPDDQIG) [compound 57], the Restriction is listed as “CD4”.
In the case of 52 (TFGGPSDSTGSNQNG) [compound 52], the “Allele(s)” value is listed as “DQB1*03:01” and the Restriction is listed as “CD4”.
In the case of 16 (YRINWITGGIAIAMA) [compound 16], the “Allele(s)” value is given as “DQB1*02:02, DQB1*03:01,; also recorded: DQB1*05:01, DQB1*05:02,; also recorded: DQB1*05:03, DQB1*06:02,; also recorded: DQB1*06:03, DRB1*07:01,; also recorded: DRB1*10:01, DRB1*12:01,; also recorded: DRB1*13:01, DRB1*14:01,; also recorded: DRB1*15:01, DRB1*16:01”, the Dominant is given as “Yes (more dominant epitopes are defined by being recognized by 3 or more donors/different studies)” and the Restriction is given as “CD4”.
In the case of 3 (LAILTALRLCAYCCN) [compound 3], the “Allele(s)” value is listed as “DRB1*01:01, DRB1*11:01” and the Restriction is listed as “CD4”.
For 8 (FLFLTWICLLQFAYA) [compound 8], the “Allele(s)” value is given as “DQB1*05:01, DQB1*05:03,; also recorded: DRB1*01:02” and the Restriction is given as “CD4”.
In the case of 38 (KEITVATSRTLSYYK) [compound 38], the “Allele(s)” value is listed as “DQB1*06:03, DRB1*03:01,; also recorded: DRB1*07:01, DRB1*14:01,; also recorded: DRB1*14:06, DRB1*15:01,; also recorded: DRB1*16:02”, the Dominant is listed as “Yes (more dominant epitopes are defined by being recognized by 3 or more donors/different studies)” and the Restriction is listed as “CD4”.
In the case of 18 (AIAMACLVGLMWLSY) [compound 18], the Restriction is given as “CD4”.
For 108 (EEIAIILASFSASTS) [compound 108], the “Allele(s)” value is listed as “DQB1*02:02, DQB1*03:02,; also recorded: DRB1*04:10, DRB1*07:01” and the Restriction is listed as “CD4”.
In the case of 44 (LGASQRVAGDSGFAA) [compound 44], the Dominant is given as “Yes (more dominant epitopes are defined by being recognized by 3 or more donors/different studies)” and the Restriction is given as “CD4”.
In the case of 77 (AAEASKKPRQKRTAT) [compound 77], the Dominant is listed as “Yes (more dominant epitopes are defined by being recognized by 3 or more donors/different studies)” and the Restriction is listed as “CD4”.
In the case of 97 (LTYTGAIKLDDKDPN) [compound 97], the “Allele(s)” value is given as “DRB1*07:01” and the Restriction is given as “CD4”.
In the case of 79 (KPRQKRTATKAYNVT) [compound 79], the “Allele(s)” value is listed as “DPB1*14:01” and the Restriction is listed as “CD4”.
In the case of 39 (ATSRTLSYYKLGASQ) [compound 39], the “Allele(s)” value is listed as “DQB1*05:01, DQB1*05:03,; also recorded: DRB1*16:01” and the Restriction is listed as “CD4”.
In the case of 84 (FGDQELIRQGTDYKH) [compound 84], the Restriction is listed as “CD4”.
